US6569809B1, “Package-mix agricultural chemical compositions having improved stability” (Monsanto Company, priority 1999, dated 2003)

Columns and labels:
[1] = at 20° C.; cited from earlier work
[2] = Solubility of flumioxazin in organic solvents
[3] = Chemical degradation of flumioxazin in contact with aqueous salt solution
[4] = tested on: inutade (Polygonum longisetum); test: Greenhouse tank-mix study, herbicidal effectiveness (Table 1); format: in vivo; settings: glyphosate 2160 g a.e./ha + flumioxazin 0 g/ha
Text: (§1) Tank-mix studies have shown that addition of a relatively small amount of flumioxazin to glyphosate alleviates both the above-mentioned disadvantages. Data from a tank-mix study in a greenhouse illustrating the benefit of simultaneous application of glyphosate+flumioxazin over a higher rate of glyphosate alone are presented in Table 1. Herbicide rates are given in grams per hectare (g/ha); rates shown for glyphosate (which was applied in this study as the isopropylammonium salt) are expressed as acid equivalent (a.e.). Herbicidal effectiveness is measured as percent inhibition by comparison with untreated plants, based on visual assessment by a technician trained in the art of making such assessments, at four times, namely 3, 7, 20 and 27 days after treatment (DAT). Data are presented for two dicotyledonous weed species, “inutade” (Polygonum longisetum) and “tsuyukusa” (Commelina communis), that are known to tolerate high rates of glyphosate.

[5] = tested on: tsuyukusa (Commelina communis); test: as above; format: in vivo; settings: glyphosate 2160 g a.e./ha + flumioxazin 0 g/ha
Text: as §1

[6] = Adsorption of glyphosate by colloidal hydrophilic silica (HPLC of supernatant); format: physicochemical; settings: 23% a.e. aqueous solution of glyphosate isopropylammonium salt, 20° C., 16 hours
Text: Where the water-soluble active ingredient is a salt of the herbicide glyphosate, it was initially feared that addition of colloidal hydrophilic silica might reduce herbicidal effectiveness by adsorption of glyphosate to the silica. A test was therefore conducted to determine the degree of adsorption of glyphosate by the highest concentration of colloidal hydrophilic silica likely to be used in a composition of the invention, i.e. 5% by weight, and by even higher concentrations.
The procedure for this test is to add a weighed amount of Aerosil™ COK-84 colloidal hydrophilic silica to a measured volume of glyphosate isopropylammonium salt solution of known concentration (23% a.e. by weight) in a stoppered glass bottle and agitate gently at a temperature of 20° C. for 16 hours. The solution is then centrifuged to deposit the silica, leaving a clear supematant. The supernatant is analyzed for glyphosate by HPLC. The amount of adsorption is calculated from the reduction in glyphosate concentration in the supernatant solution by comparison with the initial concentration.

Compound	specific gravity [1]	solubility in organic solvent ([2]; benzyl acetate)	solubility in organic solvent ([2]; phenylxylylethane)	rate of chemical degradation ([3]; benzyl acetate as the organic solvent, compared with phenylxylylethane)	chemical degradation ([3]; composition of the invention, aqueous phase mono(isopropylammonium) glyphosate pH about 4.5 to about 5, even at elevated temperatures)	chemical degradation ([3]; exposed to a concentrated aqueous salt solution such as a solution of glyphosate salt for prolonged periods)	rate of degradation ([3]; pH of the aqueous phase raised (addition of a base or dibasic salt of glyphosate))	percent inhibition ([4]; 3 DAT) [%]	percent inhibition ([4]; 7 DAT) [%]	percent inhibition ([4]; 20 DAT) [%]	percent inhibition ([4]; 27 DAT) [%]	percent inhibition ([5]; 3 DAT) [%]	percent inhibition ([5]; 7 DAT) [%]	percent inhibition ([5]; 20 DAT) [%]	percent inhibition ([5]; 27 DAT) [%]	glyphosate adsorption ([6]; silica concentration 10%) [%]	glyphosate adsorption ([6]; silica concentration 20%) [%]
C#CCN1C(=O)COc2cc(F)c(N3C(=O)C4=C(CCCC4)C3=O)cc21 [flumioxazin, 2-[7-fluoro-3,4-dihydro-3-oxo-4-(2-propynyl)-2H-1,4-benzoxazin-6-yl]-4,5,6,7-tetrahydro-1H-isoindole-1,3(2H)-dione]	1.51	rather soluble	only very sparingly soluble	much more rapid	insignificant	undergo chemical degradation	significant increase	–	–	–	–	–	–	–	–	–	–
O=C(O)CNCP(=O)(O)O [glyphosate, N-phosphonomethylglycine]	–	–	–	–	–	–	–	0	0	45	70	0	0	50	62	12	40
